Measurements taken from US9255100B2 (BAYER INTELLECTUAL PROPERTY GMBH, priority 2010, dated 2016).

molecular target: T1, N-terminally GST-tagged human full length recombinant Mps-1 kinase (Homo sapiens, UniProt P33981); assay: Mps-1 kinase assay (TR-FRET); format: biochemical; conditions: Mps1 IC50 [nM], 10 μM ATP, 1 μM peptide substrate, 60 min at 22° C.
T1 construct: N-terminally GST-tagged human full length recombinant Mps-1 kinase; purchased Invitrogen, Karslruhe, Germany PV4071
T1 sequence (P33981 1-857): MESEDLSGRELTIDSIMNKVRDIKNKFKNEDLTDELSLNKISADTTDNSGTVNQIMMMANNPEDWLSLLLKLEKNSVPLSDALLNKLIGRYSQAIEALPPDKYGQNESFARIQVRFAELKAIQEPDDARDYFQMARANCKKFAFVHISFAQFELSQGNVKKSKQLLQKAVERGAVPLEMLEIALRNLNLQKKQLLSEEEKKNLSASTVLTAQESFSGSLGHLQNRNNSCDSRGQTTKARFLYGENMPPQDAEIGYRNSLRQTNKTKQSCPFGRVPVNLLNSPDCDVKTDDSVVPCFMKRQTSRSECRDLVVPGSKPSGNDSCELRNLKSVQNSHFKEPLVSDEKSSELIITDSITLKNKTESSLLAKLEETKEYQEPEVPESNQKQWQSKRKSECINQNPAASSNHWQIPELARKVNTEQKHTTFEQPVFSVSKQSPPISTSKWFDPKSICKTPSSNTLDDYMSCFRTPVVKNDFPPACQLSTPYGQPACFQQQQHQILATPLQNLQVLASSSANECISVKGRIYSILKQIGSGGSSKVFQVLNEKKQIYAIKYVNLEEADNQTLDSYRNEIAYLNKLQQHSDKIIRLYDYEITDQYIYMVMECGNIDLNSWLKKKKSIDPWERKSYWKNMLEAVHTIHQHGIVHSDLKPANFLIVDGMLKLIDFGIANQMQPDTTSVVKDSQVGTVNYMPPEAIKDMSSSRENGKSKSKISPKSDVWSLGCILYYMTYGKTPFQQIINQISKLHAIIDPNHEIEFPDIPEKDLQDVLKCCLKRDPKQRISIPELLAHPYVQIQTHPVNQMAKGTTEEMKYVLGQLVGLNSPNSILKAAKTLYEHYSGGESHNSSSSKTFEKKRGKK
Outline: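 Kinase activity of N-terminally GST-tagged full-length recombinant Mps-1, used at about 1 nM final and set within the linear range, was measured on a biotinylated peptide substrate. Phosphopeptide was detected by TR-FRET from Eu-anti-phospho(Ser/Thr) antibody to streptavidin-XLent after 1 h at 22° C.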

| IC50 [nM] | SMILES |
| --- | --- |
| 3.6 | Cc1cc(-c2cnc3c(NCC(C)(C)O)cc(SCCC(C)(C)C)nn23)ccc1C(=O)NC1CC1 [Example 217, N-cyclopropyl-4-{6-[(3,3-dimethylbutyl)sulfanyl]-8-[(2-hydroxy-2-methylpropyl)amino]imidazo[1,2-b]pyridazin-3-yl}-2-methylbenzamide] |
| 3.7 | Cc1cc(-c2cnc3c(NCC(C)(C)O)cc(Sc4c(F)cccc4F)nn23)ccc1C(=O)NC1CC1 [Example 218, N-cyclopropyl-4-{6-[(2,6-difluorophenyl)sulfanyl]-8-[(2-hydroxy-2-methylpropyl)amino]imidazo[1,2-b]pyridazin-3-yl}-2-methylbenzamide] |
| 1.2 | C/C=C(\C)c1cc(NCCC(F)(F)F)c2ncc(-c3ccc(C(=O)NC4CC4)c(C)c3)n2n1 [Example 221, 4-{6-[(2E)-but-2-en-2-yl]-8-[(3,3,3-trifluoropropyl)amino]imidazo[1,2-b]pyridazin-3-yl}-N-cyclopropyl-2-methylbenzamide] |
| 2.1 | Cc1cc(-c2cnc3c(NCC(C)(C)O)cc(-c4ccccc4CF)nn23)ccc1C(=O)NC1CC1 [Example 222, N-cyclopropyl-4-{6-[2-(fluoromethyl)phenyl]-8-[(2-hydroxy-2-methylpropyl)amino]imidazo[1,2-b]pyridazin-3-yl}-2-methylbenzamide] |
| 0.2 | COc1ccccc1Oc1cc(NCCC(F)(F)F)c2ncc(-c3ccc(C(=O)NC4CC4)c(C)c3)n2n1 [Example 223, N-cyclopropyl-4-{6-(2-methoxyphenoxy)-8-[(3,3,3-trifluoropropyl)amino]imidazo[1,2-b]pyridazin-3-yl}-2-methylbenzamide] |
| < 0.1 | Cc1cc(-c2cnc3c(NCCC(F)(F)F)cc(Sc4ccccc4O)nn23)ccc1C(=O)NC1CC1 [Example 224, N-cyclopropyl-4-{6-[(2-hydroxyphenyl)sulfanyl]-8-[(3,3,3-trifluoropropyl)amino]imidazo[1,2-b]pyridazin-3-yl}-2-methylbenzamide] |
| 0.2 | COc1cccc(Oc2cc(NCCC(F)(F)F)c3ncc(-c4ccc(C(=O)NC5CC5)c(C)c4)n3n2)c1 [Example 225, N-cyclopropyl-4-{6-(3-methoxyphenoxy)-8-[(3,3,3-trifluoropropyl)amino]imidazo[1,2-b]pyridazin-3-yl}-2-methylbenzamide] |
| 1.3 | Cc1cc(-c2cnc3c(NCCC(F)(F)F)cc(SCCC(C)(C)C)nn23)ccc1C(=O)NC1CC1 [Example 226, N-cyclopropyl-4-{6-[(3,3-dimethylbutyl)sulfanyl]-8-[(3,3,3-trifluoropropyl)amino]imidazo[1,2-b]pyridazin-3-yl}-2-methylbenzamide] |
| 0.2 | COc1ccc(Sc2cc(NCCC(F)(F)F)c3ncc(-c4ccc(C(=O)NC5CC5)c(C)c4)n3n2)cc1 [Example 227, N-cyclopropyl-4-{6-[(4-methoxyphenyl)sulfanyl]-8-[(3,3,3-trifluoropropyl)amino]imidazo[1,2-b]pyridazin-3-yl}-2-methylbenzamide] |
| 0.6 | Cc1cc(-c2cnc3c(NCCC(F)(F)F)cc(-c4ccncc4)nn23)ccc1C(=O)NC1CC1 [Example 228, N-cyclopropyl-2-methyl-4-{6-(pyridin-4-yl)-8-[(3,3,3-trifluoropropyl)amino]imidazo[1,2-b]pyridazin-3-yl}benzamide] |
| 2.7 | Cc1cc(-c2cnc3c(NCC(C)(C)O)cc(-c4ccncc4)nn23)ccc1C(=O)NC1CC1 [Example 230, N-cyclopropyl-4-{8-[(2-hydroxy-2-methylpropyl)amino]-6-(pyridin-4-yl)imidazo[1,2-b]pyridazin-3-yl}-2-methylbenzamide] |
| 14.3 | CSc1cc(NCCS(=O)(=O)N2CCOCC2)c2ncc(-c3ccc(C(=O)NC4CC4)c(C)c3)n2n1 [Example 231, N-cyclopropyl-2-methyl-4-[6-(methylsulfanyl)-8-{[2-(morpholin-4-ylsulfonyl)ethyl]amino}imidazo[1,2-b]pyridazin-3-yl]benzamide] |
| 1 | Cc1cc(-c2cnc3c(NCC(C)(C)O)cc(-c4ccc(F)cc4C)nn23)ccc1C(=O)NC1CC1 [Example 232, N-cyclopropyl-4-{6-(4-fluoro-2-methylphenyl)-8-[(2-hydroxy-2-methylpropyl)amino]imidazo[1,2-b]pyridazin-3-yl}-2-methylbenzamide] |
| 1.7 | Cc1cc(-c2cnc3c(NCC(C)(C)O)cc(-c4ccccc4F)nn23)ccc1C(=O)NC1CC1 [Example 233, N-cyclopropyl-4-{6-(2-fluorophenyl)-8-[(2-hydroxy-2-methylpropyl)amino]imidazo[1,2-b]pyridazin-3-yl}-2-methylbenzamide] |

Further lines, the compound ahead of its results:

| SMILES | IC50 [nM] |
| --- | --- |
| CCCSc1cc(NCC(C)C)c2ncc(-c3ccc(C(=O)NC4CC4)c(C)c3)n2n1 [Example 201, N-cyclopropyl-2-methyl-4-{8-[(2-methylpropyl)amino]-6-(propylsulfanyl)imidazo[1,2-b]pyridazin-3-yl}benzamide] | 2.3 |
| Cc1cc(-c2cnc3c(NCC(C)C)cc(-c4ccnn4C)nn23)ccc1C(=O)NC1CC1 [Example 202, N-cyclopropyl-2-methyl-4-{8-[(2-methylpropyl)amino]-6-(1-methyl-1H-pyrazol-5-yl)imidazo[1,2-b]pyridazin-3-yl}benzamide] | 1.5 |
| CSc1cc(NCCC(F)(F)F)c2ncc(-c3ccc(C(=O)NC4CC4)c(C)c3)n2n1 [Example 203, N-cyclopropyl-2-methyl-4-{6-(methylsulfanyl)-8-[(3,3,3-trifluoropropyl)amino]imidazo[1,2-b]pyridazin-3-yl}benzamide] | 1.4 |
| Cc1cc(-c2cnc3c(NCCC(F)(F)F)cc(SCCO)nn23)ccc1C(=O)NC1CC1 [Example 204, N-cyclopropyl-4-{6-[(2-hydroxyethyl)sulfanyl]-8-[(3,3,3-trifluoropropyl)amino]imidazo[1,2-b]pyridazin-3-yl}-2-methylbenzamide] | < 1 |
| Cc1cc(-c2cnc3c(NCCC(F)(F)F)cc(Sc4ccccc4)nn23)ccc1C(=O)NC1CC1 [Example 207, N-cyclopropyl-2-methyl-4-{6-(phenylsulfanyl)-8-[(3,3,3-trifluoropropyl)amino]imidazo[1,2-b]pyridazin-3-yl}benzamide] | < 1 |
| Cc1cc(-c2cnc3c(NCCC(F)(F)F)cc(Sc4cccc(F)c4)nn23)ccc1C(=O)NC1CC1 [Example 209, N-cyclopropyl-4-{6-[(3-fluorophenyl)sulfanyl]-8-[(3,3,3-trifluoropropyl)amino]imidazo[1,2-b]pyridazin-3-yl}-2-methylbenzamide] | 0.6 |
| CCN(CC)CCSc1cc(NCCC(F)(F)F)c2ncc(-c3ccc(C(=O)NC4CC4)c(C)c3)n2n1 [Example 210, N-cyclopropyl-4-(6-{[2-(diethylamino)ethyl]sulfanyl}-8-[(3,3,3-trifluoropropyl)amino]imidazo[1,2-b]pyridazin-3-yl)-2-methylbenzamide] | 6.9 |
| Cc1cc(-c2cnc3c(NCCCO)cc(-c4ccnn4C)nn23)ccc1C(=O)NC1CC1 [Example 211, N-cyclopropyl-4-{8-[(3-hydroxypropyl)amino]-6-(1-methyl-1H-pyrazol-5-yl)imidazo[1,2-b]pyridazin-3-yl}-2-methylbenzamide] | 5.8 |
| Cc1cc(-c2cnc3c(NCCC(F)(F)F)cc(S(=O)(=O)c4ccccc4)nn23)ccc1C(=O)NC1CC1 [Example 212, N-cyclopropyl-2-methyl-4-{6-(phenylsulfonyl)-8-[(3,3,3-trifluoropropyl)amino]imidazo[1,2-b]pyridazin-3-yl}benzamide] | < 1 |
| Cc1cc(-c2cnc3c(NCC(C)C)cc(-c4cncc(C#N)c4)nn23)ccc1C(=O)NC1CC1 [Example 213, 4-{6-(5-Cyanopyridin-3-yl)-8-(isobutylamino)imidazo[1,2-b]pyridazin-3-yl}-N-cyclopropyl-2-methylbenzamide] | < 1 |
| Cc1cc(-c2cnc3c(NCC(C)(C)O)cc(Sc4ccccc4)nn23)ccc1C(=O)NC1CC1 [Example 214, N-cyclopropyl-4-{8-[(2-hydroxy-2-methylpropyl)amino]-6-(phenylsulfanyl)imidazo[1,2-b]pyridazin-3-yl}-2-methylbenzamide] | < 1 |
| Cc1cc(-c2cnc3c(NCCC(F)(F)F)cc(SCCN4CCOCC4)nn23)ccc1C(=O)NC1CC1 [Example 215, N-cyclopropyl-2-methyl-4-(6-{[2-(morpholin-4-yl)ethyl]sulfanyl}-8-[(3,3,3-trifluoropropyl)amino]imidazo[1,2-b]pyridazin-3-yl)benzamide] | 1.7 |
